Usually GI50 stands for the concentration that inhibits growth by half.

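Where inhibition never reached the appropriate level, the endpoint shown equals the highest concentration tested. Otherwise, values were interpolated linearly from a five-concentration, 48-hour dose response in 96-well plates. GI50 is the concentration that inhibits growth by half.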 Activity calls are given as the source filed them. No stated cut-off is given here; in the data, active = GI50 up to about 1.1 µM and inactive = higher.

Among the test systems are 786-0; CAKI-1; CCRF-CEM; HCC 2998; HOP-62; HT-29; K562; M14; NCI-H460; SF-295; SK-MEL-2; SNB-19; UACC-257; DU-145; HCT-15; SF-539; MDA-MB-435; T47D; NCI/ADR-RES.
Holding throughout (assay): DTP human tumour cell line panel, 48 h

In the case of `N#CC(c1ccc(Cl)cc1)c1cccc(C(C#N)c2ccc(Cl)cc2)n1` (centres undefined), the GI50 in the assay with 786-0 was 50.4 µM (inactive); in the assay on CAKI-1, 16.9 µM (inactive); in the assay with CCRF-CEM, 25.9 µM (inactive); with HCC 2998 it was 37.4 µM (inactive); in the assay with HOP-62, 93.8 µM (inactive); in the assay on HT-29, 19.1 µM (inactive). Also, the GI50 in the assay with K562 was 6.35 µM (inactive); in the assay on M14 it was 34.8 µM (inactive); in the assay on NCI-H460, 23.1 µM (inactive); with SF-295, 8.43 µM (inactive); in the assay with SK-MEL-2, 13.7 µM (inactive); with SNB-19 it was 26.5 µM (inactive). In addition, in the assay on UACC-257, the GI50 is 14.1 µM (inactive).
`C=C(CN(C)C)C(=O)c1ccc(C(=O)C(=C)CN(C)C)cc1`: the GI50 was > 100 µM (inactive) in the assay with 786-0; > 100 µM (inactive) with CAKI-1; > 100 µM (inactive) with CCRF-CEM; > 100 µM (inactive) with DU-145; > 100 µM (inactive) in the assay on HCC 2998; over 100 µM with HCT-15. The GI50 with HT-29, in the assay with K562, in the assay on M14, in the assay on NCI-H460, in the assay on SF-295 and with SF-539 was > 100 µM (inactive) in each case. The GI50 with SK-MEL-2, in the assay on SNB-19 and in the assay with UACC-257 was > 100 µM (inactive) each time.
In the case of `CN1C2C=C(c3ccccc3)CC1CC2` (centres undefined), the GI50 in the assay on 786-0 was > 100 µM (inactive); with CCRF-CEM, > 100 µM (inactive); in the assay with HCC 2998 it was > 100 µM (inactive); in the assay with HCT-15 it was over 100 µM; in the assay on HT-29, > 100 µM (inactive); in the assay with K562 it was > 100 µM (inactive). Further, the GI50 in the assay on M14, in the assay on NCI-H460, with SF-295, with SF-539, in the assay on SK-MEL-2 and in the assay on SNB-19 was > 100 µM (inactive) each time. Also, the GI50 with UACC-257 is > 100 µM (inactive).
In the case of `C[C@@H](c1ccccc1)N(CC#N)C1CCC[C@H]1O` (some centres undefined), the GI50 in the assay with 786-0 is > 100 µM (inactive); in the assay with CCRF-CEM, > 100 µM (inactive); in the assay with HCC 2998, > 100 µM (inactive); in the assay with HCT-15 it was over 100 µM; in the assay on HOP-62 it was > 100 µM (inactive); with HT-29, > 100 µM (inactive). The GI50 in the assay with K562, in the assay with M14, with NCI-H460, with SF-295, in the assay with SF-539 and in the assay on SK-MEL-2 was > 100 µM (inactive) throughout. Besides, the GI50 with SNB-19 and with UACC-257 was > 100 µM (inactive) in each case.
Regarding `Cc1c(-c2ccc(O)cc2)n(CCCCCCNCCOC(=O)NCCCc2ccc(N(CCCl)CCCl)cc2)c2ccc(O)cc12`, the GI50 with 786-0 is 1.59 µM (inactive); with CAKI-1 it was 11.1 µM (inactive); in the assay with CCRF-CEM it was 1.67 µM (inactive); with DU-145 it was 1.83 µM (inactive); in the assay with HCC 2998, 1.86 µM (inactive); with HCT-15, 1.79 µM. Further, the GI50 in the assay with HOP-62 was 2.54 µM (inactive); with HT-29, 1.59 µM (inactive); with K562, 2.67 µM (inactive); in the assay on M14 it was 1.59 µM (inactive); with MDA-MB-435, 1.69 µM (inactive); in the assay on NCI-H460 it was 1.52 µM (inactive). For the same compound, the GI50 in the assay with SF-295 is 2.21 µM (inactive); in the assay with SF-539, 1.64 µM (inactive); in the assay on SK-MEL-2, 10.6 µM (inactive); in the assay with SNB-19, 13.2 µM (inactive); in the assay with T47D, 0.0552 µM (active); in the assay on UACC-257, 1.89 µM (inactive).
Turning to `COc1ccc2c(ccc3c(COC(=O)NC(C)C)c(COC(=O)NC(C)C)n(C)c32)c1`, the GI50 in the assay on 786-0 is 3.26 µM (inactive); in the assay with CAKI-1 it was 2.11 µM (inactive); in the assay with CCRF-CEM, 3.21 µM (inactive); with HCT-15, 9.79 µM; with HOP-62 it was 4.99 µM (inactive); in the assay with HT-29, 10.8 µM (inactive). For the same compound, the GI50 in the assay with K562 was 6.08 µM (inactive); in the assay with M14 it was 9.06 µM (inactive); with MDA-MB-435 it was 7.74 µM (inactive); in the assay with NCI-H460, 0.414 µM (active); in the assay with NCI/ADR-RES it was 5.01 µM (inactive); with SF-295 it was 8.79 µM (inactive). Besides, the GI50 in the assay on SF-539 was 5.82 µM (inactive); in the assay on SK-MEL-2, 17.1 µM (inactive); with SNB-19, 14.2 µM (inactive); with T47D it was 7.52 µM (inactive); in the assay with UACC-257, 12.7 µM (inactive).
For the compound `COc1cc([C@@H]2c3cc4c(cc3[C@@H](NCCNCCO)[C@H]3COC(=O)[C@H]23)OCO4)cc(OC)c1O`, the GI50 is 0.762 µM (active) in the assay with 786-0; 2.83 µM (inactive) in the assay with CAKI-1; 0.0861 µM (active) in the assay with CCRF-CEM; 34.6 µM in the assay with HCT-15; 1.2 µM (inactive) in the assay with HOP-62; 2 µM (inactive) in the assay on HT-29. Moreover, the GI50 was 1.04 µM (active) in the assay with K562; 3.48 µM (inactive) in the assay with M14; 9.44 µM (inactive) with MDA-MB-435; 0.0951 µM (active) in the assay with NCI-H460; > 99.5 µM (inactive) with NCI/ADR-RES; 2.78 µM (inactive) with SK-MEL-2. Besides, the GI50 is 0.836 µM (active) in the assay with SNB-19, 0.841 µM (active) in the assay with T47D and 5.02 µM (inactive) with UACC-257.
Regarding `CC(C)=CCc1cc(/C=C/C(=O)O)cc(CC=C(C)C)c1O` [ARTEPILLIN], the GI50 is > 100 µM (inactive) in the assay on 786-0; > 100 µM (inactive) in the assay on CAKI-1; > 100 µM (inactive) in the assay with CCRF-CEM; > 100 µM (inactive) with DU-145; 76 µM in the assay on HCT-15; > 100 µM (inactive) in the assay on HOP-62. The GI50 is 47.3 µM (inactive) with HT-29; 76 µM (inactive) in the assay on K562; > 100 µM (inactive) in the assay with M14; > 100 µM (inactive) in the assay on MDA-MB-435; > 100 µM (inactive) in the assay with NCI-H460; > 100 µM (inactive) in the assay with NCI/ADR-RES. Besides, the GI50 in the assay on SF-295, in the assay with SF-539, in the assay with SK-MEL-2, in the assay with SNB-19 and in the assay with UACC-257 was > 100 µM (inactive) throughout.
As for `C(=C\c1cc(-c2ccc3ccccc3n2)nc2ccc3ccccc3c12)/c1ccc2ccccc2n1`, the GI50 in the assay on 786-0 is > 100 µM (inactive); with CAKI-1, > 100 µM (inactive); in the assay on CCRF-CEM, > 100 µM (inactive); in the assay with DU-145, > 100 µM (inactive); in the assay with HCC 2998 it was > 100 µM (inactive); with HCT-15 it was over 100 µM. Besides, the GI50 in the assay on HOP-62, in the assay on HT-29, in the assay on K562, in the assay with M14, in the assay with MDA-MB-435 and in the assay with NCI-H460 was > 100 µM (inactive) in each case. Moreover, the GI50 was > 100 µM (inactive) with NCI/ADR-RES; > 100 µM (inactive) with SF-295; 62.2 µM (inactive) in the assay with SF-539; > 100 µM (inactive) in the assay with SNB-19; > 100 µM (inactive) in the assay on UACC-257.
Consider `O=C(NCc1ccc(Cl)cc1)c1cc2sccc2nc1C(F)(F)F`, for which the GI50 is 18.2 µM (inactive) in the assay with 786-0; 31.7 µM (inactive) in the assay with CAKI-1; > 100 µM (inactive) in the assay on CCRF-CEM; 22.3 µM (inactive) in the assay with HOP-62; > 100 µM (inactive) in the assay on HT-29; > 100 µM (inactive) in the assay on K562. Also, the GI50 in the assay with M14 is > 100 µM (inactive); in the assay on MDA-MB-435 it was > 100 µM (inactive); in the assay on NCI/ADR-RES, 39.1 µM (inactive); in the assay on SF-295, 28 µM (inactive); in the assay on SF-539 it was 27.7 µM (inactive); with SK-MEL-2 it was 50 µM (inactive). The GI50 in the assay on SNB-19 is 22.5 µM (inactive); in the assay with T47D, > 100 µM (inactive); in the assay with UACC-257 it was 69 µM (inactive).
For `CC(CCCCNC(=O)OC(C)(C)C)NC(=O)NC(C)CCCCNC(=O)OC(C)(C)C` (centres undefined), the GI50 with 786-0 is > 100 µM (inactive); in the assay with CAKI-1, > 100 µM (inactive); with CCRF-CEM, 6.21 µM (inactive); in the assay with DU-145, > 100 µM (inactive); in the assay with HCT-15, over 100 µM; with HOP-62 it was > 100 µM (inactive). Moreover, the GI50 is > 100 µM (inactive) in the assay on HT-29; 83.2 µM (inactive) in the assay on K562; > 100 µM (inactive) in the assay with M14; > 100 µM (inactive) in the assay with MDA-MB-435; > 100 µM (inactive) with NCI-H460; > 100 µM (inactive) with NCI/ADR-RES. Further, the GI50 in the assay on SF-295 was 63.5 µM (inactive); with SNB-19 it was > 100 µM (inactive); in the assay with T47D, 83 µM (inactive); in the assay on UACC-257, 43.5 µM (inactive).
Regarding `CCOP(=O)(Nc1ccccc1P(=O)(OCC)OCC)OCC`, the GI50 is > 100 µM (inactive) with 786-0; > 100 µM (inactive) in the assay with CAKI-1; > 100 µM (inactive) in the assay on DU-145; > 100 µM (inactive) in the assay with HCC 2998; over 100 µM in the assay on HCT-15; > 100 µM (inactive) in the assay on HOP-62. Also, the GI50 in the assay on HT-29, in the assay on K562, in the assay with M14, in the assay with MDA-MB-435, in the assay with NCI-H460 and in the assay with NCI/ADR-RES was > 100 µM (inactive) each time. Further, the GI50 with SF-295, with SK-MEL-2, in the assay with SNB-19 and with UACC-257 was > 100 µM (inactive) in each case.
With `CCSC1=N/C(=C\c2ccco2)C(Nc2ccc(C)cc2)=N1`, the GI50 is > 100 µM (inactive) with 786-0; > 100 µM (inactive) in the assay with CCRF-CEM; > 100 µM (inactive) in the assay with DU-145; over 100 µM in the assay on HCT-15; > 100 µM (inactive) in the assay with HOP-62; > 100 µM (inactive) in the assay on HT-29. Moreover, the GI50 in the assay with K562, in the assay on M14, in the assay with MDA-MB-435, in the assay on NCI/ADR-RES, in the assay on SF-295 and in the assay with SK-MEL-2 was > 100 µM (inactive) in each case. The GI50 with SNB-19 was > 100 µM (inactive).

For the origin of these results see ChEMBL document CHEMBL1201862, “PubChem BioAssay data set” (2004).
